This is an account of results in patent publication US5252558A, “Pentapeptide having specific inhibiting effect on epidermal cell proliferation, the salts thereof, pharmaceutical compositions comprising the same and a process for the preparation of the pentapeptide and the pharmaceutical compositions” (Richter Gedeon Vegyeszeti Gyar RT, priority 1990, dated 1993).

Residues, ends and D or L forms follow the SMILES beside them. *: point of attachment. X1 = O=C1CCC[C@@H](C(=O)*)N1

This data set deals with cytoblastic medulla cells. The data set can be described thus: 51Cr-emission test (in vitro toxicity). In kind it is cell-based, rat. How it is done:
The in vitro toxicity of the new compound was examined by ^51 Cr emission test.
6×10^7 cytoblastic medulla cells to be labelled were centrifuged (1000 rotations/minute for 7 minutes), then the cells were suspended in 1 ml of TC-199 Parker medium (product of OKI) and incubated with ^51 Cr ray source of an activity of 3.7×10^7 Bq (1 mCi) at a temperature of 37° C. for 1 hour, then the labelled cells were washed with 60 ml of medium. When the evaluation was carried out, the cell suspension was centrifuged after the treatment with the oligopeptide and the radioactivity of the supernatant was measured.
When the ^51 Cr emission test was evaluated, the cell suspension was treated with the oligopeptide and centrifuged, then the activity of the supernatant was determined by a Packard apparatus.

Turning to `O=C(O)CC[C@H](NC(=O)[C@@H]1CCCC(=O)N1)C(=O)N[C@@H](CC(=O)O)C(=O)N[C@@H](CO)C(=O)NCC(=O)O` [pAad-EI, Xaa Glu Asp Ser Gly] (X1-EDSG-OH), the “51Cr-emission of cytoblastic medulla cells, cpm” value (concentration = 10^-8 mole/l, control 155,849) is on record as 148,303 cpm. Besides, the “toxicity by 51Cr emission (in words)” value (isotope emission compared to the control) is “not toxic”.
